Results from patent publication US10611747B2, “Pyrone based compounds for treating bacterial infections” (FORGE THERAPEUTICS, INC., priority 2015, dated 2020).
In brackets after ≈: the same amount, converted by molar mass. Like-named read-outs stand apart in the source and are kept apart here.

Legend:
[1] = target: LpxC (Klebsiella pneumoniae subsp. pneumoniae, UniProt A6T4N9); assay: Inhibition assay against Klebsiella pneumonae LpxC (LC-MS/MS); format: biochemical; conditions: LpxC 0.2 nM Kpn, 22° C., 60 minutes
Procedure: LpxC inhibition assays were performed using liquid chromatography with tandem mass spectrometry. Assays were performed, in duplicate, in opaque, 96-well microplates in a total assay volume of 50 μL. The incubation mixture contained: LpxC (0.2 nM Kpn), 0.8 μM UDP-3-O—[(R)-3-hydroxymyristoyl]-N-acetyl-glucosamine, 40 mM Bis-Tris/HCI buffer (pH 5.9), 5 mM sodium phosphate buffer (NaH2PO4/Na2HPO4, pH 7.0), 1 mM DTT, 0.1% (w/v) fatty-acid free BSA, 10% DMSO (v/v, with or without compound). The reactions were incubated at 22° C. for 60 minutes (with mild shaking), then terminated by the addition of 25 μL 0.25 N HCl. Samples were analyzed using a LC-MS system to measure native LpxC substrate and reaction product. IC50 analysis was done using GeneData Screener and a four parameter variable slope normalized to controls. Test compounds were prepared as 8-point dose-response curves (factor dilution 2) in triplicate, starting at 1 μM final concentration. Each assay plate included 6 wells used for the Z′ factor calculation, 3 as a positive control for the assay and 3 as a negative control. The robustness was calculated as the median Z′ factor for 5 plates.

[2] = tested on: S. aureus ATCC 29213; assay: Bacterial susceptibility testing (MIC, broth microdilution); format: cell-based; conditions: Staphylococcus aureus
Procedure: (§1) Minimal inhibitory concentrations (MIC) were determined by the broth microdilution method in accordance with the Clinical and Laboratory Standards Institute (CLSI) guidelines. In brief, organism suspensions were adjusted to a 0.5 McFarland standard to yield a final inoculum between 3×10^5 and 7×10^5 colony-forming units (CFU)/mL. Drug dilutions and inocula were made in sterile, cation adjusted Mueller-Hinton Broth (Beckton Dickinson). An inoculum volume of 100 μL was added to wells containing 100 μL of broth with 2-fold serial dilutions of drug. All inoculated microdilution trays were incubated in ambient air at 35° C. for 18-24 h. […] Performance of the assay was monitored by the use of laboratory quality-control strains and levofloxacin, a compound with a defined MIC spectrum, in accordance with CLSI guidelines.

[3] = tested on: E. coli imp mutant; assay: as above; format: cell-based; conditions: Escherichia coli, read-out: MIC E. coli imp mutant
Procedure: as §1

[4] = tested on: E. coli ATCC 25922; assay: as above; format: cell-based; conditions: Escherichia coli
Procedure: as §1

[5] = tested on: E. coli delta tolC; assay: as above; format: cell-based; conditions: Escherichia coli, 24 h, read-out: MIC E. coli delta tolC
Procedure: as §1

[6] = tested on: P. aeruginosa 209; assay: as above; format: cell-based; conditions: Pseudomonas aeruginosa, 209; broth microdilution, 35° C., 18-24 h; read-out: MIC P. aeruginosa 209
Procedure: as §1

[7] = tested on: P. aeruginosa 210 delta mexAB-OprM; assay: as above; format: cell-based; conditions: Pseudomonas aeruginosa, read-out: MIC P. aeruginosa 210 delta mexAB-OprM
Procedure: as §1

[8] = tested on: E. coli BW25113; assay: as above; format: cell-based; conditions: Escherichia coli, no FBS, 35° C., 18-24 h
Procedure: as §1

[9] = ATCC29213, broth microdilution, 35° C., 18-24 h, read-out: MIC S. aureus ATCC 29213
[10] = ATCC25922, no FBS, broth microdilution, 35° C., 18-24 h, read-out: MIC E. coli ATCC 25922-no FBS

Chain of LpxC (A6T4N9 whole entry): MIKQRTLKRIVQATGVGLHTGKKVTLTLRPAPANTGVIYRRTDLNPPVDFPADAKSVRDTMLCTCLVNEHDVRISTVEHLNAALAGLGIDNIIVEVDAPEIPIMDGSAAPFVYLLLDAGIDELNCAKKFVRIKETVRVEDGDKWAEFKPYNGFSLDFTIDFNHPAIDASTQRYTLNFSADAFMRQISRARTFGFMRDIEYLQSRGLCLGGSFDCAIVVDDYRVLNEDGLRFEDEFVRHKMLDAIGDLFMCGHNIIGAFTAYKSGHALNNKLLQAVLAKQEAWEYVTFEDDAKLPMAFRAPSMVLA

SMILES	IC50 [1]	MIC ([2]; ATCC29213, read-out: MIC S. aureus ATCC 29213)	MIC [3]	MIC ([4]; ATCC25922, read-out: MIC E. coli ATCC 25922-no FBS)	MIC [5]	MIC [2, 9]	MIC [6]	MIC [4, 10]	MIC [7]	MIC [8]
CNC(=O)c1ccc(C#CC#Cc2ccc(NCc3oc(CS(C)(=O)=O)cc(=O)c3O)cc2)cc1 [Compound 4, 4-((4-(((3-hydroxy-6-((methylsulfonyl)methyl)-4-oxo-4H-pyran-2-yl)methyl)amino)phenyl)buta-1,3-diyn-1-yl)-N-methylbenzamide]	> 100 nM	> 32 µg/mL	8 to 32 µg/mL (≈ 16.3 to 65.2 µM)	1 to 8 µg/mL (≈ 2.04 to 16.3 µM)	< 1 µg/mL	–	–	–	–	–
O=c1ccoc(CNc2ccc(C#CC#Cc3ccccc3)cc2)c1O [Compound 28]	> 100 nM	–	1 to 8 µg/mL (≈ 2.93 to 23.4 µM)	–	1 to 8 µg/mL (≈ 2.93 to 23.4 µM)	> 32 µg/mL	> 32 µg/mL	1 to 8 µg/mL (≈ 2.93 to 23.4 µM)	> 32 µg/mL	1 to 8 µg/mL (≈ 2.93 to 23.4 µM)
O=C(c1ccc(C#CC#Cc2ccc(NCc3occc(=O)c3O)cc2)cc1)N1CCOCC1 [Compound 32]	10 to 100 nM	–	1 to 8 µg/mL (≈ 2.2 to 17.6 µM)	–	< 1 µg/mL	> 32 µg/mL	> 32 µg/mL	1 to 8 µg/mL (≈ 2.2 to 17.6 µM)	> 32 µg/mL	1 to 8 µg/mL (≈ 2.2 to 17.6 µM)
CNC(=O)c1ccc(C#CC#Cc2ccc(NCc3occc(=O)c3O)cc2)cc1 [Compound 35]	> 100 nM	–	1 to 8 µg/mL (≈ 2.51 to 20.1 µM)	–	< 1 µg/mL	> 32 µg/mL	> 32 µg/mL	1 to 8 µg/mL (≈ 2.51 to 20.1 µM)	> 32 µg/mL	1 to 8 µg/mL (≈ 2.51 to 20.1 µM)
O=C(O)c1ccc(C#CC#Cc2ccc(NCc3occc(=O)c3O)cc2)cc1 [Compound 38]	> 100 nM	–	< 1 µg/mL	–	< 1 µg/mL	> 32 µg/mL	> 32 µg/mL	1 to 8 µg/mL (≈ 2.59 to 20.8 µM)	8 to 32 µg/mL (≈ 20.8 to 83 µM)	< 1 µg/mL
O=C(c1ccc(C#CC#Cc2ccc(NCc3occc(=O)c3O)cc2)cc1)N1CC(O)C1 [Compound 39]	10 to 100 nM	–	1 to 8 µg/mL (≈ 2.27 to 18.2 µM)	–	< 1 µg/mL	> 32 µg/mL	> 32 µg/mL	1 to 8 µg/mL (≈ 2.27 to 18.2 µM)	8 to 32 µg/mL (≈ 18.2 to 72.7 µM)	1 to 8 µg/mL (≈ 2.27 to 18.2 µM)
CN1CCN(C(=O)c2ccc(C#CC#Cc3ccc(NCc4occc(=O)c4O)cc3)cc2)CC1 [Compound 40]	10 to 100 nM	–	< 1 µg/mL	–	< 1 µg/mL	> 32 µg/mL	> 32 µg/mL	1 to 8 µg/mL (≈ 2.14 to 17.1 µM)	8 to 32 µg/mL (≈ 17.1 to 68.4 µM)	1 to 8 µg/mL (≈ 2.14 to 17.1 µM)
O=c1ccoc(CNc2ccc(C#CC#Cc3ccc(CN4CCOCC4)cc3)cc2)c1O [Compound 47]	10 to 100 nM	–	1 to 8 µg/mL (≈ 2.27 to 18.2 µM)	–	1 to 8 µg/mL (≈ 2.27 to 18.2 µM)	> 32 µg/mL	> 32 µg/mL	8 to 32 µg/mL (≈ 18.2 to 72.6 µM)	> 32 µg/mL	1 to 8 µg/mL (≈ 2.27 to 18.2 µM)
O=C(c1ccc(C#Cc2ccc(NCc3occc(=O)c3O)cc2)cc1)N1CC(O)C1 [Compound 54]	–	–	> 32 µg/mL	–	8 to 32 µg/mL (≈ 19.2 to 76.8 µM)	> 32 µg/mL	> 32 µg/mL	> 32 µg/mL	> 32 µg/mL	> 32 µg/mL
O=c1ccoc(CNc2ccc(C#Cc3ccc(CN4CCOCC4)cc3)cc2)c1O [Compound 55]	–	–	1 to 8 µg/mL (≈ 2.4 to 19.2 µM)	–	1 to 8 µg/mL (≈ 2.4 to 19.2 µM)	> 32 µg/mL	> 32 µg/mL	1 to 8 µg/mL (≈ 2.4 to 19.2 µM)	8 to 32 µg/mL (≈ 19.2 to 76.8 µM)	1 to 8 µg/mL (≈ 2.4 to 19.2 µM)
